Experiment [1] concerns SRS-A-induced constriction of the guinea pig ileum. Nature of the experiment: Guinea Pig Ileum, In Vitro (SRS-A antagonism). Format: cell-based. To be noted: Cavia porcellus; SRS-A-induced constriction, 37° C., SRS-A at its EC50; read-out: In vitro Guinea Pig ileum IC50. On the procedure: (a) Guinea Pig Ileum, In Vitro:
The guinea pig ileum bioassay system has been described by Orange Austen, Adv. Immunol. […] A 1.5 cm segment is removed from animals weighing 300-400 g and suspended in an organ bath containing 10 ml of Tyrodes solution with 10^-6 M atropine sulfate and 10^-6 M pyrilamine maleate. […] The SRS-A utilized in this screen is obtained by challenging chopped lung fragments from actively sensitized guinea pigs with egg albumin, in vitro. A dose-response curve to SRS-A challenge is established for the ileum. […] The drug concentration which inhibits, by 50%, the SRS-A-induced constriction of the guinea pig ileum is determined.

The subject of experiment [2] is leukotriene E4 bronchoconstriction. Nature of the experiment: Guinea Pig Bronchoconstriction, In Vivo (Aerosol), leukotriene E4 challenge. Also noted: species or system guinea pig (Hartley strain). The note with it: five minute exposure, drug concentration of aerosol solution (w/v), leukotriene E4 i.v. As for the experimental part:
(b) Guinea Pig Bronchoconstriction, In Vivo (Aerosol):
Male guinea pigs (Hartley strain) weighing 300 to 500 g are anesthetized with urethane (2 g/kg) intraperitoneally and a polyethylene cannula is inserted into the jugular vein for drug administration. Tracheal pressure is recorded from a cannula inserted in the trachea and connected to a Statham pressure transducer. After surgical preparation of the animals, a period of time is allowed for pulmonary functions to stabilize. The test compound is administered according to the following protocol. Propanolol (0.1 mg/kg) is administered intravenously while the animals breathed spontaneously. Five minutes thereater, the animals are exposed for a five minute period to a 1% (w/v) aerosol solution of test compound (adjusted to an alkaline pH where necessary for drug solubilization) or to distilled water of thhe appropriate pH (for control purposes). A Monaghan (Model 750) ultrasonic nebulizer is used to administer all test compounds by inhalation. The nebulizer ultrasonic frequency is adjusted to produce particles in the 1-8μ diameter range (average 3μ). Aqueous solutions are prepared freshly and introduced into the chamber of the nebulizer. The output of the nebulizer is made available to the animal by directing a bias flow of aerosol through a Y tube connected to the trachel cannula. At the end of the exposure period, the animals are paralyzed with succinylcholine (1.2 mg/kg, i.v.) and mechanically respirated (Harvard rodent respirator) at 40 breaths/minute and 2.5 cc tidal volume. Animals are then challenged with a maximum constrictory dose of leukotriene E4 delivered intravenously 30 seconds after administration of the succinylcholine.
The change (cm H2 O) between pre and peak ventilatory pressure readings averaged for three control animals and five drug treated animals. The percent inhibition is calculated from the following formula: [formula] When various drug concentrations are tested, the percent inhibition at each concentration is plotted as log concentration (abscissa) versus percent inhibition (ordinate) and the IC50 is determined from linear regression analysis.

The test system of experiment [3] is leukotriene D4 induced bronchoconstriction. Briefly: Oral Testing of Leukotriene Antagonists, leukotriene D4 challenge. Format: in vivo, guinea pig (Hartley strain). The note with it: Cavia porcellus, 2 h, p.o., two hours prior to challenge. As for the experimental part: (c) Oral Testing of Leukotriene Antagonists
Male guinea pigs (Hartley strain, Charles River) weighing 400 to 600 g were anesthetized with urethane (2 g/kg) intraperitoneally and a polyethylene cannula was inserted into the jugular vein for intravenous drug administration. Tracheal pressure (cm water) was recorded from a Statham pressure transducer. After surgical preparation of the animals, a period of time was allowed for spontaneous breathing to stabilize. […] Two minutes later, spontaneous breathing was arrested with succinylcholine chloride (1.2 mg/kg, i.v.) and the animals ventilated with a Harvard (Model #680) small animal respirator set at 40 breaths per minute and 4.0 cc stroke volume. The animals were challenged with a maximum constrictory dose of either leukotriene C4 or leukotriene D4 or leukotriene E4 (25 μg/kg, i.v.) at 5 minutes. Control vehicle or test drug (adjusted to an alkaline pH where necessary for drug solubilization) was administered (10 mg/kg, p.o.) two hours prior to challenge with leukotriene. In order to determine the ID50 for a test drug, the dose is varied from 10 mg/kg, p.o. to 100, 50, 30, 20, 5, 3 and 1 mg/kg, p.o.
In order to determine oral duration of action, the time between exposure to test drug and challenge with leukotriene is varied.

Each structure is given as a SMILES string.

Data on twelve compounds can be found in US4788214A, “3,4-dihydro-2H-1-benzopyran derivatives” (Hoffman-La Roche Inc., priority 1986, dated 1988).

For `CCCc1c(OCCCOc2c(C(C)=O)cc3c(c2CCC)OC(C(=O)O)CC3)ccc(C(C)=O)c1O` (racemic) [racemic-6-acetyl-7-[3-(4-acetyl-3-hydroxy-2-propylphenoxy)propoxy]-3,4-dihydro-8-propyl-2H-1-benzopyran-2-carboxylic acid], the IC50 in experiment [1] came to 0.1 µM. Besides, the “Guinea Pig Bronchoconstriction In vivo aerosol - IC50” value in experiment [2] is recorded as 0.38%. As for `CCCc1c(OCCCCCOc2cc3c(cc2C(C)=O)CCC(C(=O)O)O3)ccc(C(C)=O)c1O` (racemic) [racemic-6-acetyl-7-[5-(4-acetyl-3-hydroxy-2-propylphenoxy)pentyloxy]-3,4-dihydro-2H-1-benzopyran-2-carboxylic acid], the IC50 in experiment [1] came to 0.06 µM. Moreover, the “Guinea Pig Bronchoconstriction In vivo aerosol - IC50” value in experiment [2] is reported as 0.052%. On to `CCCc1c(OCCCCCOc2cc3c(cc2C(C)=O)CCC(CCCCC(=O)O)O3)ccc(C(C)=O)c1O` (racemic) [racemic-6-acetyl-7-[5-(4-acetyl-3-hydroxy-2-propylphenoxy)pentyloxy]-3,4-dihydro-2H-1-benzopyran-2-pentanoic acid], for which at 10 mg/kg the inhibition in experiment [3] was 46 ± 14%. `CCCc1c(OCCCCCCCOc2cc3c(cc2C(C)=O)CCC(C(=O)O)O3)ccc(C(C)=O)c1O` (racemic) [racemic-6-acetyl-7-[7-(4-acetyl-3-hydroxy-2-propylphenoxy)heptyloxy]-3,4-dihydro-2H-1-benzopyran2-carboxylic acid]: in experiment [1], the IC50 came to 1 µM. In experiment [2], the “Guinea Pig Bronchoconstriction In vivo aerosol - IC50” value is reported as 1.0%. Turning to `CCCc1c(OCCCOc2ccc3c(c2CCC)OC(C)(CCC(=O)O)CC3)ccc(C(C)=O)c1O` (racemic) [racemic-7-[3-(4-acetyl-3-hydroxy-2-n-propylphenoxy)propoxy]-3,4-dihydro-2-methyl-8-n-propyl-2H-1-benzopyran-2-propanoic acid], in experiment [1], the IC50 turned out to be 0.5 µM. Besides, in experiment [2], the “Guinea Pig Bronchoconstriction In vivo aerosol - IC50” value was 0.71%. Taken in the same sequence, the figures for `CCCc1c(OCCCOc2ccc3c(c2CCC)OC(C(=O)O)CC3)ccc(C(C)=O)c1O` (racemic) [racemic-7-[3-(4-acetyl-3-hydroxy-2-propyl)phenoxy)propoxy]-3,4-dihydro-8-propyl-2H-1-benzopyran-2-carboxylic acid] were 0.1 µM and 0.20%. On to `CCCc1c(OCCCOc2ccc3c(c2)OC(C)(CCC(=O)O)CC3)ccc(C(C)=O)c1O` (racemic) [racemic-7-[3-(4-acetyl-3-hydroxy-2-propylphenoxy)propoxy]-3,4-dihydro-2-methyl-2H-1-benzopyran-2-propanoic acid], for which the IC50 in experiment [1] came out at 0.1 µM. Further, the “Guinea Pig Bronchoconstriction In vivo aerosol - IC50” value in experiment [2] was above 1.0%. For `CCCc1c(OCCCOc2ccc3c(c2)OC(CC(=O)O)CC3)ccc(C(C)=O)c1O` (racemic) [racemic-7-[3-(4-acetyl-3-hydroxy-2-propylphenoxy)propoxy]-3,4-dihydro-2H-1-benzopyran-2-acetic acid], in experiment [1], the IC50 was determined as 0.1 µM. For the same compound, the “Guinea Pig Bronchoconstriction In vivo aerosol - IC50” value in experiment [2] came to 0.67%. `CCCc1c(OCCCOc2ccc3c(c2)OC(C(=O)O)CC3)ccc(C(C)=O)c1O` (racemic) [racemic-7-[3-(4-acetyl-3-hydroxy-2-propylphenoxy)propoxy]-3,4-dihydro-2H-1-benzopyran-2-carboxylic acid]: the IC50 in experiment [1] turned out to be 0.06 µM. Also, the “Guinea Pig Bronchoconstriction In vivo aerosol - IC50” value in experiment [2] was 0.14%. On to `CCCc1c(OCCCOc2cc3c(cc2C(C)=O)OC(C)(C(=O)O)CC3)ccc(C(C)=O)c1O` (racemic) [racemic-7-acetyl-6-[3-(4-acetyl-3-hydroxy-2-propylphenoxy)propoxy]-3,4-dihydro-2-methyl-2H-1-benzopyran-2-carboxylic acid], for which the IC50 in experiment [1] turned out to be 0.5 µM. The “Guinea Pig Bronchoconstriction In vivo aerosol - IC50” value in experiment [2] came to 1.0%. `CCCc1c(OCCCOc2cc3c(cc2C(C)=O)OC(C(=O)O)CC3)ccc(C(C)=O)c1O` (racemic) [racemic-7-acetyl-6-[3-(4-acetyl-3-hydroxy-2-propylphenoxy)propoxy]-3,4-dihydro-2H-1-benzopyran-2-carboxylic acid]: the IC50 in experiment [1] worked out at 0.2 µM. In experiment [2], the “Guinea Pig Bronchoconstriction In vivo aerosol - IC50” value was 0.34%. With `CCCc1c(OCCCOc2ccc3c(c2C(C)=O)OC(C(=O)O)CC3)ccc(C(C)=O)c1O` (racemic) [racemic-8-acetyl-7-[3-(4-acetyl-3-hydroxy-2-propylphenoxy)propoxy]-3,4-dihydro-2H-1-benzopyran-2-carboxylic acid], in experiment [1], the IC50 was found to be 0.3 µM. In addition, in experiment [2], the “Guinea Pig Bronchoconstriction In vivo aerosol - IC50” value worked out at 0.59%.

The IC50 is the point on the concentration scale where inhibition reaches its midpoint. What is called inhibition is the relative decrease from the control value, in per cent. Lower therefore signals little suppression.
